Patent publication US5508385A, “Tripeptide derivatives containing pyroglutamic acid residue” (Nitto Boseki Co., Ltd., priority 1990, dated 1996)
Counter-ions that a name gives are not always drawn. Like-named read-outs stand apart in the source and are kept apart here. Where a SMILES comes first, the peptide text is derived from it. [ ]: non-standard residue; d: D form. pGlu = O=C1CC[C@@H](C(=O)O)N1

Legend:
Format in all cases: biochemical
human serum kallikrein = target: T1, human serum kallikrein (Homo sapiens, UniProt P03952); experiment: Inhibitory activity against kallikrein (synthetic substrate S-2302); conditions: substrate S-2302, pH 8.0, 37° C.
T1 construct: purchased Kabi Co., Ltd
T1 sequence (P03952 391-638 limits assumed): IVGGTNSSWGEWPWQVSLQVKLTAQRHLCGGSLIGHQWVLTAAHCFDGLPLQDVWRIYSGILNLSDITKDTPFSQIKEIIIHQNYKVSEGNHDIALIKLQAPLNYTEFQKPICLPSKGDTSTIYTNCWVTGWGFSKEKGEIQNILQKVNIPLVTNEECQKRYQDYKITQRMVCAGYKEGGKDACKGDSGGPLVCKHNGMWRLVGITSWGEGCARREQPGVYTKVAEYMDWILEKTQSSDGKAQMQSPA
T1 sequence (P03952 20-390 partner limits assumed): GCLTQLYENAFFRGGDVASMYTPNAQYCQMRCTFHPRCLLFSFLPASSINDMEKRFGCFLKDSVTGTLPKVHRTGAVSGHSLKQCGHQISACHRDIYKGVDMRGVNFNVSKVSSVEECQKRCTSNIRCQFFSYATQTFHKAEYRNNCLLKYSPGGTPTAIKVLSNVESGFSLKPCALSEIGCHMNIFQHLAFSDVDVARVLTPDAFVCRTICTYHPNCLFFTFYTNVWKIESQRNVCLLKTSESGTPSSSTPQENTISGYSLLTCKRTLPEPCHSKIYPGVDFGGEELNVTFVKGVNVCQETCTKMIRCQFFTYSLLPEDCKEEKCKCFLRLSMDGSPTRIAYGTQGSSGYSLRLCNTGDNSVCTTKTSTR
Description: (§1) As synthetic substrates for examining the activity of inhibitor for inhibiting digestion of the substrates with enzyme, there were used PS-994 (H-D-Lys(Tos)-Phe-Lys-CHA.2HCl; manufactured by Nitto Boseki Co., Ltd.) for plasmin, PS-915 (H-D-Phe-Pro-Arg-CHA.2HCl; manufactured by Nitto Boseki Co., Ltd.) for thrombin and trypsin; PS-2000 (Z-D-Lys(HCO)-Gly-Arg-CHA.HCl; manufactured by Nitto Boseki Co., Ltd.) for factor Xa; S-2302 (H-D-Pro-Phe-Arg-pNA; manufactured by Kabi Co., Ltd.) for kallikrein; and [drawing 2] manufactured by Nitto Boseki Co., Ltd.) for urokinase.
(§2) As plasmin, thrombin, trypsin, factor Xa, kallikrein and urokinase, there were used 0.3 CU/ml of standard plasmin from Sankyo Color Test α2 -PI Measurement Kit, 1.2 NIH U/ml of thrombin from Sankyo Color Test AT-III Measurement Kit, 2 μg/ml of trypsin of Code 3703 of Worthington, 0.25 U/ml of human factor Xa manufactured by Boehringer Mannheim, 0.12 U/ml of human serum kallikrein manufactured by Kabi Co., Ltd. and 1000 U/ml of Urokinase 60000 (60,000 U/vial) manufactured by Mochida Pharmaceutical Co., Ltd., respectively. As a stopping (color forming) solution, there was used the one from the kit of Sankyo Color Test in the case of CHA type substrate. Enzyme reactions were carried out at 37° C.
To 0.4 ml of buffer solution (150 mM sodium chloride aqueous solution containing 50 mM Tris, pH 8.0) is added 0.1 ml of an aqueous solution of the inhibitor. After the mixture is heated for 5 minutes, 0.1 ml of kallikrein solution (containing 0.5% bovine serum albumin, No. A-8022 manufactured by Sigma Co.) is added thereto followed by reaction for 5 minutes. Further 10 mM S-2302 aqueous solution (0.1 ml) is added thereto. After reacting for 5 minutes, 5 ml of 20% acetic acid aqueous solution is added to terminate the reaction. Absorbance is measured at 405 nm and IC50 is determined according to the method described above.

urokinase = target: T2, urokinase (Homo sapiens, UniProt P00749); experiment: Inhibitory activity against urokinase (synthetic substrate MUK-34); conditions: Table 3; substrate MUK-34, pH 8.20, 37° C.
T2 construct: purchased Mochida Pharmaceutical Co., Ltd. Urokinase 60000 (60,000 U/vial)
Description: as §1, §2
To 0.3 ml of buffer solution (150 mM sodium chloride aqueous solution containing 50 mM Tris, pH 8.20) is added 0.1 ml of an aqueous solution of the inhibitor having various concentrations. After the mixture is heated for 5 minutes, 0.1 ml of urokinase solution (150 mM sodium chloride aqueous solution containing 50 mM Tris and 0.1% BSA, pH 8.20) is added thereto and the mixture is reacted for 5 minutes. Then 10 mM MUK-34 aqueous solution (0.1 ml) is added to the mixture. After reacting for 5 minutes, 10% acetic acid aqueous solution (2.0 ml) is added to terminate the reaction. Absorbance is measured at 405 nm and IC50 is determined according to the method described above.

human factor Xa = target: T3, human factor Xa (Homo sapiens, UniProt P00742); experiment: Inhibitory activity against factor Xa (synthetic substrate PS-2000); conditions: Table 3; substrate PS-2000, pH 8.5, 37° C.
T3 construct: purchased Boehringer Mannheim
T3 sequence (P00742 235-488 limits assumed): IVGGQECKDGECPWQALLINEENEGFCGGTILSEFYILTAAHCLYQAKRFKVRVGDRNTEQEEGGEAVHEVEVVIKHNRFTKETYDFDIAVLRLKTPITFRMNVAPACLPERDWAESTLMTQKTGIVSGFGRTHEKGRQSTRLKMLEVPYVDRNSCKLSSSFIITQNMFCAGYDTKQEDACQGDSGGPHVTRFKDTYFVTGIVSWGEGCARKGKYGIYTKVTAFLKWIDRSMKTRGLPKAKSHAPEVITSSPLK
T3 sequence (P00742 41-179 partner limits assumed): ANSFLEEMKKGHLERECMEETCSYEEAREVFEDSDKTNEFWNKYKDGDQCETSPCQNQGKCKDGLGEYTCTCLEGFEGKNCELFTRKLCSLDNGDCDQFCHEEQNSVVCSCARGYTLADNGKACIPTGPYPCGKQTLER
Description: as §1, §2
To 0.3 ml of buffer solution (150 mM sodium chloride aqueous solution containing 50 mM Tris, pH 8.5) is added 0.1 ml of an aqueous solution of the inhibitor having various concentrations. After the mixture is heated for 5 minutes, 0.1 ml of factor Xa solution (150 mM sodium chloride aqueous solution containing 50 mM Tris and 20 mM calcium chloride, pH 8.5) is added thereto and the mixture is reacted for 5 minutes. Further 5% polyvinylpyrrolidone solution (0.1 ml) containing 10 mM PS-2000 is added followed by reaction for 5 minutes. Thereafter, 2 ml of the stopping color forming solution is added. After allowing to stand for 10 minutes, absorbance is measured at 700 nm and IC50 is determined according to the method described above.

plasmin = plasmin (Homo sapiens, UniProt P00747); experiment: Inhibitory activity against plasmin (synthetic substrate PS-994); conditions: Table 3; substrate PS-994, pH 7.8, 37° C.
plasmin, sequence (P00747 97-810): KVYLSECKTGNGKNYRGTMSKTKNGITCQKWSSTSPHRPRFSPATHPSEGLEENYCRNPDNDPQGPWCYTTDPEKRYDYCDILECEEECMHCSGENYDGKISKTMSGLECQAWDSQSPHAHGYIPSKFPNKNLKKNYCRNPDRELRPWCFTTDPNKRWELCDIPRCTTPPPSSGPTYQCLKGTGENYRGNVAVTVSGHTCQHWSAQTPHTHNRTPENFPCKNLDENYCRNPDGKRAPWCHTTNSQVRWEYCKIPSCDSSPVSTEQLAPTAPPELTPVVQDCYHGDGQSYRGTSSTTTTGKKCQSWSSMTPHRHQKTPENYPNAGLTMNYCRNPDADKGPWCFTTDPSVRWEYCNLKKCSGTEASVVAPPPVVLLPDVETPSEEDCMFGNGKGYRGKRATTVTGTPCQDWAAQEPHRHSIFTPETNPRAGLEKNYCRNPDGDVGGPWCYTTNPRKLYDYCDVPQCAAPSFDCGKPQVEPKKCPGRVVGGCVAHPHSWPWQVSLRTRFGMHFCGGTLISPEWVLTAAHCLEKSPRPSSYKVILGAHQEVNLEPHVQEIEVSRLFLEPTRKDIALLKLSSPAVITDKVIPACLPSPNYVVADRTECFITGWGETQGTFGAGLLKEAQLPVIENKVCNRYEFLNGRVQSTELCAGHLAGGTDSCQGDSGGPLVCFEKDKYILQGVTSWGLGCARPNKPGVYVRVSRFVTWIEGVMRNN
Experimental: As a stopping (color forming) solution, there was used the one from the kit of Sankyo Color Test in the case of CHA type substrate. Enzyme reactions were carried out at 37° C.
To 0.4 ml of buffer solution (150 mM sodium chloride aqueous solution containing 100 mM Tris, pH 7.8) is added an aqueous solution (0.1 ml) of the inhibitor having various concentrations. The mixture is heated for 5 minutes. After 0.2 ml of plasmin solution is added thereto, the mixture is reacted for 5 minutes. […] After completion of the reaction, 2.0 ml of the stopping color forming solution is added.

thrombin = thrombin (Bos taurus, UniProt P00735); experiment: Inhibitory activity against thrombin (synthetic substrate PS-915); conditions: Table 3; substrate PS-915, pH 8.5, 37° C.
Description: as §1, §2
To 0.4 ml of buffer solution (150 mM sodium chloride aqueous solution containing 150 mM Tris, pH 8.5) is added an aqueous solution (0.1 ml) of the inhibitor having various concentrations. The mixture is heated for 5 minutes. After 0.2 ml of thrombin solution is added thereto, the mixture is reacted for 5 minutes. Then 0.1 ml of PS-915 solution (10 mM) is added followed by reaction for 5 minutes. Thereafter, 2 ml of the stopping color forming solution is added. After allowing to stand for 10 minutes, absorbance is measured at 700 nm and IC50 is determined according to the method described above.

trypsin = target: T4, trypsin (Bos taurus, UniProt P00760); experiment: Inhibitory activity against trypsin (synthetic substrate PS-915); conditions: Table 3; substrate PS-915, pH 8.0, 37° C.
T4 construct: purchased Worthington Code 3703
T4 sequence (P00760 24-246): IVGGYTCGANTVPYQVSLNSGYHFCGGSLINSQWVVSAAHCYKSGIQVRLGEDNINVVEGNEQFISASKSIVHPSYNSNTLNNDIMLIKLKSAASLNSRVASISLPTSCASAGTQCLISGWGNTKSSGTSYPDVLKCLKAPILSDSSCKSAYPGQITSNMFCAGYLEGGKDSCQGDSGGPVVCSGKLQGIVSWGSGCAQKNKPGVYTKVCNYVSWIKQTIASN
Description: as §1, §2
To 0.5 ml of buffer solution (150 mM sodium chloride aqueous solution containing 150 mM Tris, pH 8.0) is added 0.1 ml of an aqueous solution of the inhibitor. After the mixture is heated for 5 minutes, 0.1 ml of trypin solution is added thereto. Further 0.1 ml of PS-915 solution (10 mM) is added followed by reaction for 5 minutes. Thereafter, 2 ml of the stopping color forming solution [containing 2.5 mg/ml of soybean trypsin inhibitor (manufactured by Sigma Co., No. T-9003)] is added. After allowing to stand for 10 minutes, absorbance is measured at 700 nm and IC50 is determined according to the method described above.

[1] = Table 3, read-out: IC50, kallikrein (Table 3)

Row | Compound | IC50 (human serum kallikrein; [1]) [µM] | IC50 (urokinase) [µM] | IC50 (human factor Xa) [µM] | IC50 (plasmin) [µM] | IC50 (thrombin) [µM] | IC50 (trypsin) [µM] | IC50 (human serum kallikrein; Table 2, read-out: IC50 of Known Compound, Kallikrein) [µM]
1 | N=C(N)NCCC[C@@H](C=O)NC(=O)[C@@H]1CCCN1C(=O)[C@@H]1CCC(=O)N1 [Example 13, L-pyroglutamyl-L-prolyl-L-argininal 1/2 sulfate] ([pGlu]-Pro-Arg-aldehyde) | 5.5 | 0.68 | 13 | 1.4 | 22 | 0.02 | –
2 | CC(=O)N[C@@H](CC(C)C)C(=O)N[C@@H](CC(C)C)C(=O)N[C@H](C=O)CCCNC(=N)N [Example A1, acetyl-L-leucyl-L-leucyl-L-argininal, reference compound] | – | – | – | – | – | – | 6.9
3 | N-benzyloxycarbonyl-D-pyroglutamyl-L-leucyl-L-argininal hydrochloride [Example 7] | 3.1 | 30 | 4.7 | 2.8 | > 100 | 0.43 | –
4 | N-benzyloxycarbonyl-D-pyroglutamyl-L-phenylalanyl-L-argininal hydrochloride [Example 9] | 0.87 | 40 | 0.72 | 1.3 | > 100 | 1 | –
5 | N-benzyloxycarbonyl-D-pyroglutamyl-L-prolyl-L-argininal hydrochloride [Example 6] | 13 | 1.1 | 5 | 4.6 | 22 | 0.062 | –
6 | N-benzyloxycarbonyl-L-pyroglutamyl-L-alanyl-L-argininal hydrochloride [Example 2] | 7.8 | 7.6 | 0.52 | 7.2 | 5.9 | 0.0074 | –
7 | N-benzyloxycarbonyl-L-pyroglutamyl-L-phenylalanyl-L-argininal hydrochloride [Example 3] | 0.42 | 76 | 0.59 | 1.1 | 35 | 0.069 | –
8 | N-benzyloxycarbonyl-L-pyroglutamyl-L-prolyl-L-argininal hydrochloride [Example 1] | 5 | 22 | 0.36 | 3.2 | 0.056 | 0.0062 | –
